The source made the active and inactive calls.
Columns and labels:
[1] = molecular target: T1, G-protein coupled receptor 55 (Homo sapiens, UniProt Q9Y2T6); assay: GPR55 antagonist potency of analogs, SAR follow-up, imaging, U2OS, beta-arrestin-GFP, LPI agonist, set 2 (AID 2820); format: functional
Cannabinoid receptor 2 [2] = molecular target: T2, Cannabinoid receptor 2 (Homo sapiens, UniProt P34972); assay: SAR analysis of agonists of the Cannabinoid Receptor 2 using an Image-Based Assay. [Related pubchem assays (depositor defined):AID2013, AID2026]; format: functional
Streptococcus = assay: Group A Streptococcus viability loss, dose response, counter-screen for streptokinase expression inhibitor project, luminescence, BacTiterGlo (AID 1915); format: functional, organism-based;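 also: potency for reduction of bacterial viability or growth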
[3] = system: Streptococcus sp. 'group A'; assay: growth inhibition of control SK(-) GAS strain, dose response, counter-screen for streptokinase expression inhibitor project, luminescence, kanamycin, BacTiterGlo, confirmation (AID 1900); format: functional, organism-based
[4] = molecular target: T3, G-protein coupled receptor 35 (Homo sapiens, UniProt Q9HC97); assay: SAR analysis of Antagonists of the GPR35 Receptor using an Image-Based Assay - Set 3. [Related pubchem assays (depositor defined):AID2013, AID2026]; format: functional
Cannabinoid receptor 1 [5] = molecular target: T4, Cannabinoid receptor 1 (Homo sapiens, UniProt P21554); assay: SAR analysis of agonists of the Cannabinoid Receptor 1 using an Image-Based Assay - Set 2. [Related pubchem assays (depositor defined):AID2013, AID2026]; format: functional
[6] = molecular target: T1, G-protein coupled receptor 55; assay: GPR55 antagonists blocking LPI-driven arrestin recruitment, primary screen, imaging, U2OS, beta-arrestin-GFP, LPI agonist (AID 2013); format: functional;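 also: antagonist potency measured as reduced agonist-driven arrestin aggregation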
Cannabinoid receptor 1 [7] = molecular target: T4, Cannabinoid receptor 1; assay: SAR analysis of antagonists of the Cannabinoid Receptor 1 using an Image-Based Assay - Set 2. [Related pubchem assays (depositor defined):AID2013, AID2026]; format: functional
Streptokinase A = molecular target: T5, Streptokinase A (Streptococcus pyogenes serotype M1, UniProt P10520); assay: S. pyogenes streptokinase expression inhibitors, potency, dose response, plasminogen activation absorbance, OD405 (AID 1914); format: functional, Streptococcus pyogenes M1 GAS;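 also: secreted streptokinase activity via plasminogen activation per viability signal from cell pellet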
T5 sequence (P10520 whole entry): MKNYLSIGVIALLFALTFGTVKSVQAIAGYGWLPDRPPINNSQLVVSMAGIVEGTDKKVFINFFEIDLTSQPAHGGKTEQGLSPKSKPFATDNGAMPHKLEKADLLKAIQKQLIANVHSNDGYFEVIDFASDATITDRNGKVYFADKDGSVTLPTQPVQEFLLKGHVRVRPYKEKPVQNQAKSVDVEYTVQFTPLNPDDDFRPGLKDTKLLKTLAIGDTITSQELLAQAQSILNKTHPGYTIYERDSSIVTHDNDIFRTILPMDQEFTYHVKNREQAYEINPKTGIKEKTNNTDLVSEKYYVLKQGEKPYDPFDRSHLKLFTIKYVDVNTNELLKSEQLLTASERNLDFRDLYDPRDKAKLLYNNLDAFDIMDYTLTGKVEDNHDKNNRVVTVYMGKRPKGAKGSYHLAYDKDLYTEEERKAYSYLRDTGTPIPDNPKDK

Cannabinoid receptor 2 [8] = molecular target: T2, Cannabinoid receptor 2; assay: SAR analysis of antagonists of the Cannabinoid Receptor 2 using an Image-Based Assay. [Related pubchem assays (depositor defined):AID2013, AID2026]; format: functional
[9] = molecular target: T3, G-protein coupled receptor 35; assay: SAR analysis of Agonists of the GPR35 Receptor using an Image-Based Assay - Set 2. [Related pubchem assays (depositor defined):AID2013, AID2026]; format: functional
Bcl-2-related protein A1 = molecular target: T6, Bcl-2-related protein A1 (Mus musculus, UniProt Q07440); format: functional;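 also: confirmatory dose–response counterscreen on Bfl-1, used to check hits from a UBC13 polyubiquitin inhibitor campaign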
T6 sequence (Q07440 whole entry): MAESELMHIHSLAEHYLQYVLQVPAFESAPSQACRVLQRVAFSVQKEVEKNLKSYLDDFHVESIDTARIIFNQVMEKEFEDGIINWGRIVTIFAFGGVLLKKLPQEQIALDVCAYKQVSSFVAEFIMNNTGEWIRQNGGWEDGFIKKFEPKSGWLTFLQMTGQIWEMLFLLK

[10] = molecular target: T7, Apoptotic protease-activating factor 1 (Homo sapiens, UniProt O14727); format: functional
T7 sequence (O14727 whole entry): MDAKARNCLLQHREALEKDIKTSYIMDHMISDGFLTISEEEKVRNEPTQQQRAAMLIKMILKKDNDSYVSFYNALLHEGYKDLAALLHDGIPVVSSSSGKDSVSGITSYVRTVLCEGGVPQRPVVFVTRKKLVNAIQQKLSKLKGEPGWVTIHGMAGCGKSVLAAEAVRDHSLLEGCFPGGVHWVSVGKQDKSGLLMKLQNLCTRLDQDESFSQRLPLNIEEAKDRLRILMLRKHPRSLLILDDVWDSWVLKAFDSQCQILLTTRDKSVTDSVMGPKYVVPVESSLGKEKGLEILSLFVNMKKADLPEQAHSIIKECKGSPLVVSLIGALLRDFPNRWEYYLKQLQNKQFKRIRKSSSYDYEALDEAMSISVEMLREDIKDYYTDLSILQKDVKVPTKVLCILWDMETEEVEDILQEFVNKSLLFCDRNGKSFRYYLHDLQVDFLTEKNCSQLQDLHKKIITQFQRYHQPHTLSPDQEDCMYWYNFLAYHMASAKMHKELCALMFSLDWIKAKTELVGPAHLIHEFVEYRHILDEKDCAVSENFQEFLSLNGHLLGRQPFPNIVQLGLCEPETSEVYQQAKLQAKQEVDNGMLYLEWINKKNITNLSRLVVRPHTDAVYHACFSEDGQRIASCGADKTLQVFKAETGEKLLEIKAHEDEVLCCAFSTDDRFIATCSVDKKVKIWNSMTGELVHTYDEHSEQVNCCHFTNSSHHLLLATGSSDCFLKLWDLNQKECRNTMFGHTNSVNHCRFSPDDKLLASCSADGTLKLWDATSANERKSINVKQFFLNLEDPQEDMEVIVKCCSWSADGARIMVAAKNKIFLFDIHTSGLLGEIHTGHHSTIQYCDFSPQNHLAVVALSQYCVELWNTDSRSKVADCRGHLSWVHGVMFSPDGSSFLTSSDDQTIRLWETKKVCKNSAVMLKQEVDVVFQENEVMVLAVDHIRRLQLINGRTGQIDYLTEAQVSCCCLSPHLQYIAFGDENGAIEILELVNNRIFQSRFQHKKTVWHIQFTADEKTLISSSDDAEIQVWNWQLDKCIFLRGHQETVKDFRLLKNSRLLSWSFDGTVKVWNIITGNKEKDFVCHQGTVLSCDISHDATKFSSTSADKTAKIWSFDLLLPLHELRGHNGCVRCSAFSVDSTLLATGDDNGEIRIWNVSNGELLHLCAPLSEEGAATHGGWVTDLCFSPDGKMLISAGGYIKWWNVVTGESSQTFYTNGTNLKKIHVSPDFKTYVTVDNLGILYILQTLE

[11] = molecular target: T8, Ubiquitin-conjugating enzyme E2 N (Homo sapiens, UniProt P61088); format: functional
T8 sequence (P61088 whole entry): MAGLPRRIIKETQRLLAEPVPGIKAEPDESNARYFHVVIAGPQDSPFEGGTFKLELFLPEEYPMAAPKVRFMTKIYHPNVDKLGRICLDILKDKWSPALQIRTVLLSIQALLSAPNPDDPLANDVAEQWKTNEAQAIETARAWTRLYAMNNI

[12] = MDA-MB-231 cell growth inhibition, dose response, cytotoxicity control for RAD54 inhibitor project, CellTiter-Glo luminescence, cherry-pick (AID 651692); format: functional, cell-based
[13] = molecular target: DNA repair and recombination protein RAD54-like (Homo sapiens, UniProt Q92698); assay: inhibitors of human RAD54 branch migration, confirmation, biochemical, fluorescence, cherry-picked samples, dose series (AID 651657); format: functional
[14] = molecular target: T8, Ubiquitin-conjugating enzyme E2 N; format: functional; remark: listed apart in the source
Melanocortin receptor 4 = Melanocortin receptor 4 (Homo sapiens, UniProt P32245); format: functional, cell-based;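 also: Cell-based assay with luminescence read-out, confirmatory dose-response testing for agonist activity of biased ligands at MC4R; human U2OS cells with tagged receptor and beta-arrestin; potency of agonists that increase receptor coupling to beta-arrestin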
Melanocortin receptor 4, sequence (P32245 whole entry): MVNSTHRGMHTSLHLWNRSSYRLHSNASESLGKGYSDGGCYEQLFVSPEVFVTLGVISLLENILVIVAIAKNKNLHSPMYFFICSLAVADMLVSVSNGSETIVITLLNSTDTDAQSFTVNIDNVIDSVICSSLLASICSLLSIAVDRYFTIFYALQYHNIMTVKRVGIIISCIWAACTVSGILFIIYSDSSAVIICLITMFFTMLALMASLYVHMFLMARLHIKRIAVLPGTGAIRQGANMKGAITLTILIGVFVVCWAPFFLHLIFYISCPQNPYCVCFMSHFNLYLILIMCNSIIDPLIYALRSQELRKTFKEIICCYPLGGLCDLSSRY

T1 sequence (Q9Y2T6 whole entry): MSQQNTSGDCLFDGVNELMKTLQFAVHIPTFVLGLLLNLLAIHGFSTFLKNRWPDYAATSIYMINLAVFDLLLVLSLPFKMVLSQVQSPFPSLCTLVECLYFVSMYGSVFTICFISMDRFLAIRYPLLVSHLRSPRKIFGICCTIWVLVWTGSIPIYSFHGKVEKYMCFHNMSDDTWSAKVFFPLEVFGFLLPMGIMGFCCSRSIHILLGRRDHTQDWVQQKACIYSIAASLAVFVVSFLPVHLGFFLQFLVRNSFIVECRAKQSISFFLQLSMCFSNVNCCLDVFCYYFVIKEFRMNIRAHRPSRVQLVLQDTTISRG
T3 sequence (Q9HC97 whole entry): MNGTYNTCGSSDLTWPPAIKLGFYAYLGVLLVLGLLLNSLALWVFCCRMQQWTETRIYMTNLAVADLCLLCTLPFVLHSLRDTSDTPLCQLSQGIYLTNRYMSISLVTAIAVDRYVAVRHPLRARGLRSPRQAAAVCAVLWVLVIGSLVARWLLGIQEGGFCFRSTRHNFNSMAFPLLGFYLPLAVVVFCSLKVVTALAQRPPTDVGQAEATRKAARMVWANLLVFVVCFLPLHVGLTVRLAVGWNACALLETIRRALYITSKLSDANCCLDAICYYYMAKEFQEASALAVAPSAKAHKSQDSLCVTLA
T4 sequence (P21554 whole entry): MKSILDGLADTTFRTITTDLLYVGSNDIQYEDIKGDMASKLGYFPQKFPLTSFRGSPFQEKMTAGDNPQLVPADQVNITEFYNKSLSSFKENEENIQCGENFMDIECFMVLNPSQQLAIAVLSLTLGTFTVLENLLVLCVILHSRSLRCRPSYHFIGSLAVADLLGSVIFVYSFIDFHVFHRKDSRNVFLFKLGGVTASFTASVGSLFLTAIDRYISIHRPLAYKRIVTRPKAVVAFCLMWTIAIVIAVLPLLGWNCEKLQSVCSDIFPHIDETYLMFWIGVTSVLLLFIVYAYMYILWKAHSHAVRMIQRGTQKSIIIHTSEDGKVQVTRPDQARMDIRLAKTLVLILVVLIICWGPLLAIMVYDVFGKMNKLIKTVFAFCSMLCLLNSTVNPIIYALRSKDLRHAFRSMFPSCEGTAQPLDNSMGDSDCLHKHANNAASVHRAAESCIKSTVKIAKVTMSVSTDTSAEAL
T2 sequence (P34972 whole entry): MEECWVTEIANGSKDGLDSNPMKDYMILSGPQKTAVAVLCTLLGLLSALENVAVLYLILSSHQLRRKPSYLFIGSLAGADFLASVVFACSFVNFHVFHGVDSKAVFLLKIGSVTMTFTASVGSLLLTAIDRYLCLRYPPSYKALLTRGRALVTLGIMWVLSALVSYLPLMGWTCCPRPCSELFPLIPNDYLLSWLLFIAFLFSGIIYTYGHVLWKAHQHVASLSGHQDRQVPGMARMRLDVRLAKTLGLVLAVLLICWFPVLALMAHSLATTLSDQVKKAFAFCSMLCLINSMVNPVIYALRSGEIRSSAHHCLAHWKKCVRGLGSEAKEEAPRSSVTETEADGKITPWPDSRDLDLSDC
DNA repair and recombination protein RAD54-like, sequence (Q92698 whole entry): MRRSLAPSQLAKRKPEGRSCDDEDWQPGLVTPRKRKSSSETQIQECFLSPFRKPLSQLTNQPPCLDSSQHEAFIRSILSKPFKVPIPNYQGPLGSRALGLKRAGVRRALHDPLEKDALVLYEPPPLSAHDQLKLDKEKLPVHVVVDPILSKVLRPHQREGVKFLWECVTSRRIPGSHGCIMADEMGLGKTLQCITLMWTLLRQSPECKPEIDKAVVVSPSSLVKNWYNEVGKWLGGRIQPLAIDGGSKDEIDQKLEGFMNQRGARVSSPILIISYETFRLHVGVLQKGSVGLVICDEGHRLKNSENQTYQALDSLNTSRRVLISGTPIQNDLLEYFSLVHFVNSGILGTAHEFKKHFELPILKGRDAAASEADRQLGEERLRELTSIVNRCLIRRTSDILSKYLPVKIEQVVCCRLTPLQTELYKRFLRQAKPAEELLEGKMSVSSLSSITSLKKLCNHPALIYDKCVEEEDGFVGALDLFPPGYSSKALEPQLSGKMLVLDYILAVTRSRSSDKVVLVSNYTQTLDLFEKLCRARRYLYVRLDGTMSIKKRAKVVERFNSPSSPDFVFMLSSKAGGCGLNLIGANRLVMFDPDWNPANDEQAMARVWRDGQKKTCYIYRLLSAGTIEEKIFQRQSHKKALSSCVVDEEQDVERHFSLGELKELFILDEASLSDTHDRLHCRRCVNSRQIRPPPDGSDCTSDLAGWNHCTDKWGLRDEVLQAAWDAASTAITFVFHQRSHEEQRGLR

SMILES | IC50 [1] | EC50 (Cannabinoid receptor 2 [2]) | EC50 (Streptococcus) | EC50 [3] | IC50 [4] | EC50 (Cannabinoid receptor 1 [5]) | IC50 [6] | IC50 (Cannabinoid receptor 1 [7]) | EC50 (Streptokinase A) | IC50 (Cannabinoid receptor 2 [8]) | EC50 [9] | IC50 (Bcl-2-related protein A1) | IC50 [10] | IC50 [11] | AC50 [12] | AC50 [13] | IC50 [14] | EC50 (Melanocortin receptor 4)
Cc1ccc(-n2cc3c(-c4cccc(Br)c4)nnc(C)c3n2)cc1 | 1.24 µM (active) | > 32 µM (inactive) | 46.9 µM (active) | 7.37 µM (active) | > 32 µM (inactive) | > 32 µM (inactive) | 2.21 µM (active) | 2.94 µM (active) | 94.1 µM (active) | 23.8 µM (inactive) | > 32 µM (inactive) | – | – | – | – | – | – | –
Cc1ccc(-c2csc3nc4c5ccccc5c(NCCCN(C)C)nn4c(=O)c23)cc1 | – | – | – | – | – | – | – | – | – | – | – | > 20 µM (inactive) | 40 µM (active) | 13.7 µM (active) | 13.6 µM (active) | 13.3 µM (active) | 3.7 µM (active) | > 89.2 µM (inactive)
